In the supplement of paper PMC10307832:

Experiments:
Assay in all cases: relative viability (nuclei count vs DMSO), 5 days (fraction); higher = more cells survive
Dabrafenib + Phenformin = compound: CC(C)(C)c1nc(-c2cccc(NS(=O)(=O)c3c(F)cccc3F)c2F)c(-c2ccnc(N)n2)s1 [Dabrafenib] + N=C(N)NC(=N)NCCc1ccccc1 [Phenformin] (partner 250 µM)
In short: (§1)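 Lung cancer cell lines in 1536-well plates were dosed by pin tool the day after seeding, either with one drug alone or with a fixed anchor-drug dose plus five library-drug doses (not always all listed) in √10 steps. After 5 days, cells were fixed and their nuclei stained in one step (final 0.05% Triton X-100, 1% formaldehyde, 1 ug/ml Hoechst), then counted on 4× images. Relative viability is the nuclei count in treated wells divided by that in vehicle wells. Values are medians of duplicate plates.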

Dabrafenib + Vorinostat = compound: CC(C)(C)c1nc(-c2cccc(NS(=O)(=O)c3c(F)cccc3F)c2F)c(-c2ccnc(N)n2)s1 [Dabrafenib] + O=C(CCCCCCC(=O)Nc1ccccc1)NO [Vorinostat] (partner 1 µM)
In short: as §1

VX-702 + Lapatinib = compound: NC(=O)c1ccc(N(C(N)=O)c2c(F)cccc2F)nc1-c1ccc(F)cc1F [VX-702] + CS(=O)(=O)CCNCc1ccc(-c2ccc3ncnc(Nc4ccc(OCc5cccc(F)c5)c(Cl)c4)c3c2)o1 [Lapatinib] (partner 2 µM)
In short: as §1

VX-702 + Vorinostat = compound: NC(=O)c1ccc(N(C(N)=O)c2c(F)cccc2F)nc1-c1ccc(F)cc1F [VX-702] + O=C(CCCCCCC(=O)Nc1ccccc1)NO [Vorinostat] (partner 1 µM)
In short: as §1

Row | Cell Line | relative viability (Dabrafenib + Phenformin; first compound 0.009487 µM) | relative viability (Dabrafenib + Phenformin; first compound 0.03 µM) | relative viability (Dabrafenib + Phenformin; first compound 0.09487 µM) | relative viability (Dabrafenib + Phenformin; first compound 0.3 µM) | relative viability (Dabrafenib + Vorinostat; first compound 0.009487 µM) | relative viability (Dabrafenib + Vorinostat; first compound 0.09487 µM) | relative viability (Dabrafenib + Vorinostat; first compound 0.3 µM) | relative viability (VX-702 + Lapatinib; first compound 0.02 µM) | relative viability (VX-702 + Lapatinib; first compound 0.2 µM) | relative viability (VX-702 + Lapatinib; first compound 0.6325 µM) | relative viability (VX-702 + Lapatinib; first compound 2 µM) | relative viability (VX-702 + Vorinostat; first compound 0.02 µM) | relative viability (VX-702 + Vorinostat; first compound 0.2 µM) | relative viability (VX-702 + Vorinostat; first compound 0.6325 µM) | relative viability (VX-702 + Vorinostat; first compound 2 µM) | relative viability (Dabrafenib + Phenformin; first compound 0.003 µM) | relative viability (Dabrafenib + Vorinostat; first compound 0.003 µM) | relative viability (Dabrafenib + Vorinostat; first compound 0.03 µM)
1 | NCI-H322M | 0.86 | 0.579 | 0.744 | 0.502 | 0.962 | 0.822 | 0.74 | 0.58 | 0.616 | 0.583 | 0.674 | 0.921 | 0.874 | 0.854 | 0.93 | – | – | –
2 | HCC-366 | 0.672 | 0.539 | 0.483 | 0.612 | 0.286 | 0.296 | 0.247 | 1.03 | 1.15 | 1.23 | 0.791 | 0.402 | 0.38 | 0.427 | 0.133 | 0.325 | 0.365 | 0.29
3 | NCI-H1355 | 0.487 | 0.414 | 0.4 | 0.459 | 0.672 | 0.581 | 0.633 | 1.09 | 0.984 | 0.998 | 1.28 | 0.694 | 0.605 | 0.689 | 0.821 | – | – | 0.641
4 | LC-2-ad | 0.594 | 0.587 | 0.517 | 0.621 | 0.736 | 0.613 | 0.686 | 0.892 | 0.972 | 1.01 | 1.03 | 0.693 | 0.678 | 0.773 | 0.803 | – | 0.74 | 0.73
5 | NCI-H2087 | 0.527 | 0.597 | 0.395 | 0.391 | 0.8 | 0.594 | 0.809 | 1.28 | 1.1 | 1.1 | 1.16 | 0.673 | 0.797 | 0.662 | 0.958 | – | – | 0.779
6 | BEN | 0.257 | – | 0.272 | 0.242 | 0.499 | 0.517 | 0.612 | 0.726 | 0.662 | 0.539 | 0.926 | 0.63 | 0.559 | 0.643 | 0.559 | – | – | –
7 | NCI-H2228 | 0.326 | 0.289 | 0.37 | 0.258 | 0.53 | 0.381 | 0.877 | 0.851 | 1.04 | 1.04 | 1.33 | 0.536 | 0.631 | 0.467 | 0.896 | – | 0.501 | 0.656
8 | HCC-827 | 0.447 | 0.354 | – | 0.385 | 1.01 | – | 0.79 | 0.181 | 0.191 | 0.19 | 0.152 | 0.879 | 0.799 | 0.885 | 0.827 | 0.31 | 0.423 | 0.785
9 | IA-LM | – | – | – | – | 0.957 | 0.829 | 1.07 | 0.789 | 0.738 | 0.77 | 0.761 | 0.937 | 0.936 | 0.853 | 0.878 | – | – | 0.983
10 | NCI-H522 | 0.654 | 0.616 | 0.628 | 0.634 | 1.06 | 0.815 | 0.93 | – | – | – | – | 1.06 | 0.899 | 1.03 | 1.11 | – | – | 0.864
11 | H3255 | 0.444 | 0.338 | 0.391 | 0.383 | 0.765 | 0.913 | 0.78 | 0.24 | 0.254 | 0.26 | 0.241 | 0.757 | – | 0.598 | 0.866 | 0.345 | 0.762 | 0.755
12 | NCI-H838 | 0.648 | 0.451 | 0.566 | 0.625 | 0.752 | 0.711 | 0.759 | 1.06 | 1.01 | 1.13 | 1.35 | 0.737 | 0.702 | 0.751 | 0.787 | 0.564 | 0.693 | 0.713
13 | NCI-H1993 | 0.536 | 0.482 | 0.446 | 0.513 | 1.35 | 0.631 | 1.09 | 0.811 | 0.827 | 0.827 | 0.743 | 0.661 | 0.754 | 0.588 | 1.03 | 0.33 | 0.753 | 0.735
14 | SK-MES-1 | 0.757 | 0.665 | 0.543 | 0.508 | 1.05 | 1.04 | 0.854 | 0.449 | 0.407 | 0.458 | 0.43 | 1.09 | 1.08 | 1.06 | 1.11 | 0.582 | – | 1.14
15 | NCI-H661 | 0.277 | 0.268 | 0.323 | 0.306 | 0.778 | 0.767 | 0.842 | 0.498 | 0.445 | 0.505 | 0.624 | 0.775 | 0.786 | 0.76 | 0.816 | 0.256 | 0.889 | 0.804
16 | NCI-H1650 | 0.424 | 0.457 | 0.495 | 0.631 | 0.528 | 0.608 | 0.659 | 0.808 | 0.469 | 0.818 | 0.907 | 0.479 | 0.624 | 0.776 | 0.583 | 0.347 | 0.547 | 0.711
17 | ABC-1 | 0.233 | 0.254 | 0.232 | 0.209 | 1.37 | 1.25 | 1.04 | 0.972 | 0.98 | – | 1.18 | 1.46 | 0.922 | 1.17 | 1.41 | 0.214 | – | 1.19
18 | LU99A | 0.883 | 0.887 | 0.862 | 0.671 | 0.492 | 0.406 | 0.391 | 0.948 | 1.02 | 0.987 | 0.982 | 0.412 | 0.452 | 0.49 | 0.485 | 0.907 | 0.549 | 0.457
19 | ChaGo-K-1 | 0.446 | 0.472 | 0.418 | 0.556 | 0.727 | 0.694 | 0.754 | – | – | – | – | 0.84 | 0.7 | 0.79 | 0.795 | 0.315 | 0.518 | 0.663
